# Experimental data: BindingDB's records for doi:10.1016/j.bmcl.2004.10.085 (Bristol-Myers Squibb Pharmaceutical Research Institute, 2004)
# Target: T1, Androgen receptor (Homo sapiens, UniProt P10275)
# T1 sequence (P10275 whole entry): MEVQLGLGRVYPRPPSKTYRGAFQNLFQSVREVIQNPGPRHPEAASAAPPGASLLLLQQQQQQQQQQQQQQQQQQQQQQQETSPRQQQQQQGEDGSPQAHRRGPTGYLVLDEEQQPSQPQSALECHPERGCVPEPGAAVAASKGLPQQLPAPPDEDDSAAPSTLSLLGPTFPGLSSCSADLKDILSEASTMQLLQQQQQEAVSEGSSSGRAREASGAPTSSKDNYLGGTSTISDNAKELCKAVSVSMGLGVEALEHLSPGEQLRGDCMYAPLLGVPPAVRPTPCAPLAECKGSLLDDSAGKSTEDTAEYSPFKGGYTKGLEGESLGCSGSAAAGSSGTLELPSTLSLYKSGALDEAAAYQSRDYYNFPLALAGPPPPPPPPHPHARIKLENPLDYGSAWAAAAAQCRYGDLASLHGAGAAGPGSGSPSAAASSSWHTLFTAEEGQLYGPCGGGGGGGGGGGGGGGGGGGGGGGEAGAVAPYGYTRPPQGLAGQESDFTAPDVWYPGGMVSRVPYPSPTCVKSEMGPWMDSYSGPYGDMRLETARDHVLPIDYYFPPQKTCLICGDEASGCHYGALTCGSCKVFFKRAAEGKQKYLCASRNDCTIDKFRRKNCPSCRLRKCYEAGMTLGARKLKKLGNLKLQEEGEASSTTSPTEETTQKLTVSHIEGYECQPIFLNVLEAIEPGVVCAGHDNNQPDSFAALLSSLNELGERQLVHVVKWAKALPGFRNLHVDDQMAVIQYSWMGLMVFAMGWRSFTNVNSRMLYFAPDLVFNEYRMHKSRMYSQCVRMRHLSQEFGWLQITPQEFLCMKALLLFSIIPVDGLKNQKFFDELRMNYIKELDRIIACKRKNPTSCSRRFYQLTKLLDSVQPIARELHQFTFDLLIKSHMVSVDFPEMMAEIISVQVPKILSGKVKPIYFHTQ
# Test: Inhibition of androgen dependent human prostate cancer cell […] proliferation
row,Structure (SMILES),IC50 [nM]
1,"Oc1c2c(c(O)n1-c1cccc(C(F)(F)F)c1)C1CCCC2CC1 [(2S,6R)-4-(3-Trifluoromethyl-phenyl)-4-aza-tricyclo[5.3.2.0*2,6*]dodecane-3,5-dione]",179
2,"Oc1c2c(c(O)n1-c1ccc(Cl)c(Cl)c1)C1C=CC2C1 [(2R,6S)-4-(3,4-Dichloro-phenyl)-4-aza-tricyclo[5.2.1.0*2,6*]dec-8-ene-3,5-dione]",180
3,"CN1C(=O)C2C=CC1c1c2c(O)n(-c2ccc([N+](=O)[O-])c3ccccc23)c1O [(2R,6R)-8-Methyl-4-(4-nitro-naphthalen-1-yl)-4,8-diaza-tricyclo[5.2.2.0*2,6*]undec-10-ene-3,5,9-trione]",8460

# These reach a lower IC50. Values come first.
row,IC50 [nM],Structure (SMILES)
1,0.4,"Oc1c2c(c(O)n1-c1cccc(C(F)(F)F)c1)C1C=CC2CC1 [(2R,6S)-4-(3-Trifluoromethyl-phenyl)-4-aza-tricyclo[5.2.2.0*2,6*]undec-8-ene-3,5-dione]"
2,148,"Oc1c2c(c(O)n1-c1cccc(C(F)(F)F)c1)C1C=CC2[C@H]2C[C@@H]12 [(2R,6S,8S,10R)-4-[3-(trifluoromethyl)phenyl]-4-azatetracyclo[5.3.2.0^{2,6}.0^{8,10}]dodec-11-ene-3,5-dione]"
